Like-named read-outs stand apart in the source and are kept apart here. Where no end group is shown, it is not given here. [ ]: non-standard residue; d: D form. βAla = NCCC(=O)O
How the values were obtained:
hKOPr [1] = system: hKOPr; set-up: method as in Bedini et al., 2020; details: result in words; ref Bedini et al., 2020; cited from earlier work
hMOPr = hMOPr (Homo sapiens, UniProt P35372); assay: Competitive radio binding assay with [3H]-DAMGO on hMOPr-CHO cell membranes; details: read-out: Ki hMOPr; [3H]-DAMGO 1 nM, 60 min 25°C; mean ± SEM
hMOPr, sequence (P35372 whole entry): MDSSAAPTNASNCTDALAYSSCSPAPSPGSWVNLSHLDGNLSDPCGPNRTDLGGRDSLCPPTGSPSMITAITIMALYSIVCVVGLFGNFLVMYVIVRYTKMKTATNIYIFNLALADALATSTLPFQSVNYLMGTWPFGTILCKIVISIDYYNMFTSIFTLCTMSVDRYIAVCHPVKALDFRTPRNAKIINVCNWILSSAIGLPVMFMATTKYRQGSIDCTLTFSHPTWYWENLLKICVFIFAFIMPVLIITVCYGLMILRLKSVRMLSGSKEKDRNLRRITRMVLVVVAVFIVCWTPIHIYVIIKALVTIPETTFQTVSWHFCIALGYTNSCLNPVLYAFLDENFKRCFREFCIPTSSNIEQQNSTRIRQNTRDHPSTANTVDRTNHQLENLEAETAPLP

hDOPr [2] = molecular target: T1, hDOPr (Homo sapiens, UniProt P41143); assay: Competitive radio binding assay with [3H]-diprenorphine on hDOPr-CHO cell membranes
T1 sequence (P41143 whole entry): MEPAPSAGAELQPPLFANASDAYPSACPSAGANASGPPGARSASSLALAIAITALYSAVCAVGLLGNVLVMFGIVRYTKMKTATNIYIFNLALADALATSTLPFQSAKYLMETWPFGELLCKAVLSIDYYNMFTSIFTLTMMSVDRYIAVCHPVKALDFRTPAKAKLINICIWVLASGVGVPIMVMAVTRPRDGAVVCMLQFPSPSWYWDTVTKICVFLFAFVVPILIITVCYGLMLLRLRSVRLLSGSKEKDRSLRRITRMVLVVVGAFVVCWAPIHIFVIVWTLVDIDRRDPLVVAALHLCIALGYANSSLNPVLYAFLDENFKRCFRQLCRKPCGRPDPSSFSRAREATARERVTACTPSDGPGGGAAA

hKOPr [3] = molecular target: T2, hKOPr (Homo sapiens, UniProt P41145); assay: biochemical; details: for EC50: read-out: Potency at hKOPr EC50
T2 sequence (P41145 whole entry): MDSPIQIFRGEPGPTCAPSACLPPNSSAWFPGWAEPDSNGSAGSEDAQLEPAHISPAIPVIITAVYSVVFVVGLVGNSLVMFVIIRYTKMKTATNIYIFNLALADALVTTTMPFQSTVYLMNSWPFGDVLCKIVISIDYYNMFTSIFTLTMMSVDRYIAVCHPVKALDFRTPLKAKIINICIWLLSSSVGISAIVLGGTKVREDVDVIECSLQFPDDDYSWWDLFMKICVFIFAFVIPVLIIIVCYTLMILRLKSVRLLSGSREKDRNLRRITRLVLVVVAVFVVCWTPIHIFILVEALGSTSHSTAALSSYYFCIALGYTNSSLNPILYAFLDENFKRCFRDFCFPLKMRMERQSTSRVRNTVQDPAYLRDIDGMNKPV

hKOPr [4] = molecular target: T2, hKOPr; format: binding; details: for Ki: read-out: Ki hKOPr
hDOPr [5] = molecular target: T1, hDOPr; assay: [35S]GTPγS functional assay on hDOPr-CHO cell membranes; format: biochemical
Method: CHO cells stably transfected with human KOPr, MOPr, and DOPr (hKOPr-CHO, hMOPr-CHO, and hDOPr-CHO, respectively) were provided by Prof. Liu-Chen (Temple University, Philadelphia, United States). The cells were grown in Gibco™ Dulbecco’s minimal essential medium (DMEM) for hKOPr-CHO or Gibco™ DMEM/F-12 for hMOPr and hDOPr. Both media were supplemented with 10% FBS (Gibco™), GlutaMAX (100 μg/mL; Gibco™), penicillin/streptomycin (100 μg/mL; Gibco™), and geneticin (G418, 400 μg/mL; Gibco™). HEK 293 cells were grown in high-glucose DMEM supplemented with 10% FBS (Gibco™), GlutaMAX (100 μg/mL; Gibco™), and penicillin/streptomycin (100 μg/mL; Gibco™). Cell cultures were maintained in a Heracell™ 150i CO2 incubator at 37°C and 5.0% CO2.
Functional assays were conducted on hKOPr-CHO, hMOPr-CHO, and hDOPr-CHO cell membranes (see above). The membranes were prepared in a buffer containing 20 mM HEPES, 10 μM GDP, cell membrane (10–30 μg), and 0.05 nM [^35S]GTPγS. The buffer containing the cell membranes was incubated with an increasing concentration of the test peptide diluted in 1 × HEPES, pH 7.4, in a total volume of 1 mL, for 60 min at 25°C. The peptide solutions were replaced by diluents for untreated controls. Non-specific binding was determined using unlabeled 10 μM GTPγS. Samples were rapidly washed three times with Tris-HCl and filtered through glass fiber filters (GF/B Whatman). The bound radioactivity was measured by liquid scintillation (Carl Roth GmbH, Karlsruhe, Germany) counting on a Packard 1600 TR Tri-Carb Beta counter (Canberra, Belgium).

hKOPr [6] = assay: Biased factor calculation from GTPγS and PRESTO-Tango data; set-up: species or system human; details: G-protein vs β-arrestin, DynA as reference; below 1 = β-arrestin bias
Text: To perform biased factor analyses, we followed the step-by-step protocol described by [Nagi and Pineyro (2016)]. In short, curve fitting was used to calculate τ and Ka values for G-protein and β-arrestin pathway activation. Log(τ/Ka) ratios were subtracted by log(τ/Ka) of DynA as the reference to yield ΔLog(τ/Ka) values for each peptide. In a final step for each peptide, ΔLog (τ/Ka) values for G-protein pathway activation were subtracted from ΔLog(τ/Ka) values for β-arrestin pathway activation and vice versa to calculate ΔΔLog(τ/Ka). The biased factor is yielded by delogging ΔΔLog (τ/Ka).
To confidently identify a G-protein-biased peptide of interest, it is essential to keep in mind that the responses we collected through GTPγS and PRESTO-Tango assay are not solely determined by drug signaling properties but also by the way the cell and different assays “perceive” the generation of this response. These different “perceptions” of the pharmacological stimulus may themselves be responsible for an imbalance among signals from different pathways. To avoid this, and to be able to correctly estimate whether a peptide is indeed biased, we applied the method proposed by [Kenakin et al. (2012)], that is based on the operational method proposed by [Black and Leff (1983)]. This method takes into consideration receptor occupation by the agonist, communication of the pharmacological stimulus to the system, and the processing of the stimulus by the system that produces the response.

hKOPr [7] = molecular target: T2, hKOPr; assay: cell-based; format: cell-based; details: HEK293, read-out: β-Arrestin recruitment, efficacy at hKOPr Emax
[8] = read-out: Ki hDOPr, [3H]-diprenorphine 1 nM, 60 min 25°C, mean ± SEM
[9] = read-out: Efficacy at hKOPr Emax

Compound	Ki (hMOPr)	Ki (hDOPr [2]; [8])	agonist category at hKOPr (GTPγS) (hKOPr [3])	Emax (hKOPr [3]; [9])	EC50 (hKOPr [3])	Selectivity DOPr/KOPr (hKOPr [4])	Selectivity MOPr/KOPr (hKOPr [4])	Ki (hKOPr [4])	further results
cyclo(FG[βAla][dW]) [LOR17]									G-protein bias at the hKOPr (hKOPr [1]): strong G-protein bias
YGMFLRRQFKVVT [DynB_G3M]	117 ± 6.9 nM	85.3 ± 16.4 nM	partial agonists	54.5 ± 1.8%	14.1 ± 4.17 nM	141	193	0.61 nM	
YGGFLRRQFAVVT [DynB_K10 A]				132 ± 3.9%					
YGMFSRRQFKVVT [DynB_G3M/L5S]	290 ± 17.9 nM	8080 nM	partial agonists	52.6 ± 1.6%	170 ± 23.7 nM	1,115	40	7.24 nM	potency for hKOPr as compared to DynB (GTPγS) (hKOPr [3]): strongly reduced potency
YGMFLRRHFKVVT [DynB_G3M/Q8H]	97.1 ± 15.8 nM	167 ± 19 nM	partial agonists	42.1 ± 1.3%	5.43 ± 0.53 nM	459	268	0.36 nM	
YGAFLRRQFKVVT [DynB_G3A]	82.3 ± 7.9 nM	317 ± 34.1 nM		83.4 ± 5.5%	27.9 ± 8.72 nM	149	39	2.13 nM	
YGAFLRRHFKVVT [DynB_G3A/Q8H]	41.9 ± 1.3 nM	460 ± 44.2 nM	partial agonists	74.9 ± 1.6%	6.77 ± 0.82 nM	1,508	137	0.3 nM	
YGGFLRRHFKVVT [DynB_Q8H]	7.7 ± 1.4 nM	106 ± 17.1 nM		111.5 ± 0.9%	2.25 ± 0.47 nM	507	36	0.21 nM	
YGGFLRRAFKVVT [DynB_Q8A]				125 ± 12.3%					
CC(C)C[C@H](NC(=O)[C@H](Cc1ccccc1)NC(=O)CNC(=O)CNC(=O)[C@@H](N)Cc1ccc(O)cc1)C(=O)N[C@@H](CCCNC(=N)N)C(=O)N[C@@H](CCCNC(=N)N)C(=O)N[C@@H](CCC(N)=O)C(=O)N[C@@H](Cc1ccccc1)C(=O)N[C@@H](CCCCN)C(=O)N[C@H](C(=O)N[C@H](C(=O)N[C@H](C(=O)O)[C@@H](C)O)C(C)C)C(C)C [DynB_WT, dynorphin B, reference compound]				120 ± 1.5%					Ki (hDOPr [2]): 80.2 ± 6.4 nM; EC50 (hDOPr [5]): 59.3 ± 6.7 nM; hDOPr % stim, stimulation of [35S]GTPγS binding (hDOPr [5]; Table 3, normalized to DynA, mean ± SEM): 104 ± 3.6%; biased factor at hKOPr (hKOPr [6]): 0.8 ± 0.2; hKOPr % stim, stimulation of [35S]GTPγS binding (hKOPr [3]): 120 ± 1.5%; preference for hKOPr over hDOPr (GTPγS) (hKOPr [3]): 12 fold; preference for hKOPr over hMOPr (GTPγS) (hKOPr [3]): 6 fold; Emax (hKOPr [3]; read-out: Emax higher than DynA): 20%; Emax (hKOPr [7]): 111 ± 5.3%
FGGFLRRQFKVVT [DynB_Y1F]	217 ± 13.5 nM	1620 nM		110 ± 5.5%	393 ± 47.3 nM	44		37.3 nM	potency for hKOPr as compared to DynB (GTPγS) (hKOPr [3]): strongly reduced potency
YGAFSRRQFKVVT [DynB_G3A/L5S]	98.3 ± 5.9 nM	3790 nM		92.5 ± 5.7%	116 ± 11.2 nM	2,195	57	1.73 nM	decrease of potency compared to DynB_WT (hKOPr [3]): more than 20 fold; potency for hKOPr as compared to DynB (GTPγS) (hKOPr [3]): strongly reduced potency
YGAFLRRQFAVVT [DynB_G3A/K10 A]	90.4 ± 7.6 nM	497 ± 105 nM		84 ± 3.6%	16.7 ± 2.45 nM	317	58	1.57 nM	

Reference: article PMC11557314 (Frontiers in Pharmacology, 2024)
